21 molecules from PubChem BioAssay AID488801 (NMMLSC, 2010) can be followed below.

pEC50: −log10 of the molar value. Calls of active or inactive are those of the source.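 Rule for the calls: active = EC50 at or below 33 microM; inactive = the rest.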

Ammonium transporter MEP2 (Saccharomyces cerevisiae (strain ATCC 204508 / S288c)), sequence (P41948 whole entry, looked up): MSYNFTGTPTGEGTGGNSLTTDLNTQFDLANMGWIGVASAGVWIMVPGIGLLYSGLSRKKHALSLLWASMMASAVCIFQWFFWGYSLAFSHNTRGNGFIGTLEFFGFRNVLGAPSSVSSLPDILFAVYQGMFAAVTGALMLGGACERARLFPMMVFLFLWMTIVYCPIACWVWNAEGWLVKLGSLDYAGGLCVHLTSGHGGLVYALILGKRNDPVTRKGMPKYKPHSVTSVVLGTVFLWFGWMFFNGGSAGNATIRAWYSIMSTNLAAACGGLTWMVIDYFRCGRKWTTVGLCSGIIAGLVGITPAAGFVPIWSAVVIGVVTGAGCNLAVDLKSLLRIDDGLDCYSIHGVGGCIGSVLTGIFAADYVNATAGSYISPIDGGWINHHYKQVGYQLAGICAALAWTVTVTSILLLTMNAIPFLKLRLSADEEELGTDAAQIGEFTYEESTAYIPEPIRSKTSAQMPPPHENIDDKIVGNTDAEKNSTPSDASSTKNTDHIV

This test addresses Ammonium transporter MEP2 (Saccharomyces cerevisiae (strain ATCC 204508 / S288c)) (UniProt P41948). Nature of the test: MEP2-GFP expression modulation in yeast, dose response, flow cytometry, KU SAR set, S. cerevisiae (AID 488801). The note with it: flow cytometry MCF, 3 h. A general note: A flow cytometer gives signals particle by particle.
As for `CNc1nc(N)c([N+](=O)[O-])c(NCC2CCCO2)n1` (stereo unspecified), the EC50 entry is “inactive”. Turning to `C/C(=N\NC(=O)c1cccc(Br)c1)c1ccccn1`, the EC50 entry is “inactive”. Turning to `O=C(Oc1ccnc2cc(Cl)ccc12)N1CCCCCC1`, the pEC50 – broadly, the EC50 on a negative log10 scale, so that one unit is a factor of ten – was 5.40. Take `C/C(=N\NC(=O)c1ccc(C(C)(C)C)cc1)c1ccccn1`: the EC50 result was “inactive”. Take `Nc1cc(Oc2cccc(Cl)c2)nc(NCc2ccccc2)n1`: the EC50 entry is “inactive”. Regarding `CNc1nc(N)c([N+](=O)[O-])c(Nc2cccc(Cl)c2)n1`, the pEC50 was 5.57. On to `CN1CCN(C(c2ccc(C(F)(F)F)cc2)c2ccc3cccnc3c2O)CC1` (stereo unspecified), for which the EC50 result is “inactive”. The same measure, in the same setting: as for `Cc1cc(C(=O)Nc2nc(-c3ccccn3)cs2)ccc1[N+](=O)[O-]`, the entry is “inactive”; as for `Cc1ccc(C(c2cc(Cl)c3cccnc3c2O)N2CCN(C)CC2)cc1` (stereo unspecified), “inactive”. `CNc1nc(N)c([N+](=O)[O-])c(Nc2cccc(F)c2)n1`: the pEC50 is 4.80. In the case of `Cc1ccc(/C=C2/C(=O)ON=C2c2ccccc2)o1`, the EC50 result was “inactive”. The same measure, in the same setting: with `O=C(Nc1nc(-c2ccccn2)cs1)c1cc2ccccc2o1` the entry was “inactive”. The same measure, in the same setting: with `CSC1=NS(=O)(=O)c2c(C)nn(C)c2S1` the entry was “inactive”; with `O=C(Oc1c(Cl)cc(Cl)c2cccnc12)c1cccc([N+](=O)[O-])c1`, “inactive”. With `O=C(Nc1nc(-c2ccccn2)cs1)C1COc2ccccc2O1` (stereo unspecified), the EC50 entry is “inactive”. The same measure, in the same setting: as for `CCN(CC)C(=O)Oc1ccnc2cc(Cl)ccc12`, the entry is “inactive”; as for `O=C(Oc1c(Cl)cc(Cl)c2cccnc12)c1ccco1`, “inactive”; as for `Cc1ccc(S(=O)(=O)c2ncccc2[N+](=O)[O-])cc1`, “inactive”.

As to `Nc1cc(Nc2cccc(F)c2)nc(NCc2ccccc2)n1`, the EC50 result is “inactive”. The same measure, in the same setting: as for `COc1ccc([N+](=O)[O-])c(S(=O)(=O)c2ccccc2)n1`, the entry is “inactive”; as for `O=C(OCC(=O)N1CCN(C(=O)c2ccco2)CC1)c1cc(-c2cccc(Br)c2)nc2ccccc12`, “inactive”.
